Measurements: patent publication US5610299A (priority 1995, dated 1997)

biological target: GABAa receptor; assay: GABAa receptor binding activity ([3H]-RO15-1788 displacement, rat cortical tissue); conditions: 0.5 nM [3H]-RO15-1788, 30 min at 4° C., nonspecific with 1.0 μM diazepam
Protocol: The pharmaceutical utility of compounds of this invention are indicated by the following assay for GABAa receptor binding activity.
Assays are carried out as described in Thomas and Tallman (J. Bio. Chem. 156:9838-9842, J. Neurosci. 3:433-440, 1983). Rat conical tissue is dissected and homogenized in 25 volumes (w/v) of 0.05M Tris HCl buffer (pH 7.4 at 4° C.). The tissue homogenate is centrifuged in the cold (4°) at 20,000×g for 20'. The supernatant is decanted and the pellet is rehomogenized in the same volume of buffer and again centrifuged at 20,000×g. The supernatant is decanted and the pellet is frozen at -20° C. overnight. The pellet is then thawed and rehomogenized in 25 volume (original wt/vol) of buffer and the procedure is carried out twice. The pellet is finally resuspended in 50 volumes (w/vol of 0.05M Tris HCl buffer (pH 7.4 at […]).
Incubations contain 100 μl of tissue homogenate, 100 μl of radioligand 0.5 nM (^3 H-RO15 -1788 [^3 H-Flumazenil] specific activity 80 Ci/mmol), drug or blocker and buffer to a total volume of 500 μl. Incubations are carried for 30 min at 4° C. then are rapidly filtered through GFB filters to separate free and bound ligand. Filters are washed twice with fresh 0.05M Tris HCl buffer (pH 7.4 at 4° C.) and counted in a liquid scintillation counter. 1.0 μM diazepam is added to some tubes to determine nonspecific binding. Data are collected in triplicate determinations, averaged and % inhibition of total specific binding is calculated. Total Specific Binding=Total-Nonspecific. In sonic cases, the amounts of unlabeled drugs is varied and total displacement curves of binding are carried out. Data are converted to a form for the calculation of IC50 and Hill Coefficient (nH).

Q: For `COc1ccc(-c2ncc3[nH]c4ccccc4n3c2=O)cc1` [Compound 1, 2-(4-Methoxyphenyl)-benzimidazo[1,2-a]pyrazin-1(5H)-one], which IC50 is on record?
A: The IC50 was 15 nM.

Q: For `COc1ccc(F)c(-c2ncc3[nH]c4ccccc4n3c2=O)c1` [Compound 2, 2-(2-Fluoro-5-methoxyphenyl)-benzimidazo[1,2-a]pyrazin-1(5H)-one], which IC50 is on record?
A: Its IC50 is 167 nM.

Q: With `O=c1c(-c2ccccc2)ncc2[nH]c3ccccc3n12` [Compound 3, 2-Phenyl-benzimidazo[1,2-a]pyrazin-1(5H)-one] as the compound, how does the IC50 read?
A: The IC50 was 93 nM.

Q: With `COc1cccc(-c2ncc3[nH]c4ccccc4n3c2=O)c1` [Compound 4] as the compound, how does the IC50 read?
A: The IC50 was 61 nM.

system: GABA binding site / benzodiazepine binding site; assay: not given; conditions: Tallman et al. 1978; cited from earlier work

Q: Which “block of enhancement of benzodiazepine binding by GABA agonists” value does the source give for `CN1CCc2cc3c(cc2C1C1OC(=O)c2c1ccc1c2OCO1)OCO3` (single isomer, unassigned; (+)) [(+) bicuculline] here?
A: Its value is “blocked”.

Q: For `CN1CCc2cc3c(cc2C1C1OC(=O)c2c1ccc1c2OCO1)OCO3` (single isomer, unassigned; (-)) [(-) bicuculline], which “block of enhancement of benzodiazepine binding by GABA agonists” value is on record?
A: Its value is “much less active”.
